For experiment [1], the target named is human 5-HT1A receptor (Homo sapiens (Human), UniProt P08908). The experiment can be described thus: Affinity for human 5-HT1A receptor ([3H]8-OH-DPAT binding, HEK-293 cell homogenates). The settings on record: 0.3 nM [3H]8-OH-DPAT, human HEK-293 cell homogenates, 22° C., 60 minutes; Ki from IC50 by ChengPrusoff equation. How it is done: Human HEK-293 cell homogenates (36 μg protein) were incubated at 22° C. for 60 minutes with 0.3 nM [^3H]8-0H-DPAT (Perkin-Elmer) in the absence or presence of the test compound in a buffer solution containing 50 mM Tris-HCl (pH 7.4), 10 mM MgSO4, 0.5 mM EDTA and 2 μg/ml aprotinine.
human 5-HT1A receptor, sequence (P08908 whole entry): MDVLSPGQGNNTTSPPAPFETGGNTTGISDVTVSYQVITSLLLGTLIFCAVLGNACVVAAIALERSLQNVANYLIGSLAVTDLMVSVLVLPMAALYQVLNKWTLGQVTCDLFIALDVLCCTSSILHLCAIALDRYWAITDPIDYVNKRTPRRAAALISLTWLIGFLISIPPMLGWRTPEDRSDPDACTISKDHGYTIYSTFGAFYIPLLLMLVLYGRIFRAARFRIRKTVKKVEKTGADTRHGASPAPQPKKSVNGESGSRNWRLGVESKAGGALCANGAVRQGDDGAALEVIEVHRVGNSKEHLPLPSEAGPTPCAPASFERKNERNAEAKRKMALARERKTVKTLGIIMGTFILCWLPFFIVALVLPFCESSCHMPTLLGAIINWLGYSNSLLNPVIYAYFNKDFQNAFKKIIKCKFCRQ
The non-specific binding value was determined by incubating the same mixture in the presence of 10 μM 8-OH-DPAT, which was used as the standard reference compound and tested in each experiment at several concentrations to obtain a competition curve.
Following the incubation, the samples were filtered rapidly under vacuum through glass fiber filter (GF/B, Packard) presoaked with 0.3% PEI and rinsed several times with ice-cold 50 mM Tris-HCl using a 96-sample cell harvester (Unifilter, Packard). The filters were dried and the retained radioactivity was measured in a scintillation counter (Topcount, Packard) using a scintillation cocktail (Microscint 0, Packard). The experimental results were expressed as a percent inhibition of the control radioligand specific binding.
Binding assay of [^3H] 8-OH-DPAT (0.3 nM) with 5-HT1A receptor in human HEK-293 cell was tested by scintillation proximity assay of membrane.

For experiment [2], the target named is serotonin transporter in rat synaptosome (Rattus norvegicus (Rat), UniProt P31652). Nature of the experiment: Inhibitory effect on [3H]5-HT uptake in rat synaptosome. The settings on record: rat brain synaptosomes, 0.1 μCi [3H]5-HT, 37° C., 15 minutes. The class given is biochemical. On the procedure:
The synaptosomes (150 μg) prepared from a rat brain were incubated at 37° C. for 15 minutes with 0.1 μCi [^3H]5-HT in the absence or presence of the test compound or the reference compound in a buffer solution containing 106.2 mM NaCl, 4.5 mM KCl, 2.25 mM MgSO4, 1.08 mM NaH2PO4, 22.5 mM NaHCO3, 9.9 mM glucose, 9 μM EGTA and 45 μM ascorbic acid (pH 7.4).
The basal control activity was determined by incubating the same mixture at 4° C. for 15 minutes in the presence of 10 μM imipramine to block the uptake of 5-HT, which was taken as the standard reference compound and tested in each experiment at several concentrations to obtain an inhibition curve.
Following the incubation, the samples were filtered rapidly under vacuum through glass fiber filters (GF/B, Packard) and rinsed twice with an ice-cold incubation buffer using a 96-sample cell harvester (Unifilter, Packard) to eliminate free [^3H]5-HT. The filters were dried and the retained radioactivity was measured in a scintillation counter (Topcount, Packard) using a scintillation cocktail (Microscint 0, Packard). The experimental results were expressed as a percent inhibition of the control uptake of [^3H]5-HT.
Inhibition of serotonin transporter in rat synaptosome was measured by the concentrations of [^3H]5-HT.

Data on twelve compounds can be found in patent US9714232B2, “Substituted piperazine compounds and methods of use thereof” (Sunshine Lake Pharma Co., Ltd., priority 2013, dated 2017).

serotonin transporter in rat synaptosome, sequence (P31652 whole entry): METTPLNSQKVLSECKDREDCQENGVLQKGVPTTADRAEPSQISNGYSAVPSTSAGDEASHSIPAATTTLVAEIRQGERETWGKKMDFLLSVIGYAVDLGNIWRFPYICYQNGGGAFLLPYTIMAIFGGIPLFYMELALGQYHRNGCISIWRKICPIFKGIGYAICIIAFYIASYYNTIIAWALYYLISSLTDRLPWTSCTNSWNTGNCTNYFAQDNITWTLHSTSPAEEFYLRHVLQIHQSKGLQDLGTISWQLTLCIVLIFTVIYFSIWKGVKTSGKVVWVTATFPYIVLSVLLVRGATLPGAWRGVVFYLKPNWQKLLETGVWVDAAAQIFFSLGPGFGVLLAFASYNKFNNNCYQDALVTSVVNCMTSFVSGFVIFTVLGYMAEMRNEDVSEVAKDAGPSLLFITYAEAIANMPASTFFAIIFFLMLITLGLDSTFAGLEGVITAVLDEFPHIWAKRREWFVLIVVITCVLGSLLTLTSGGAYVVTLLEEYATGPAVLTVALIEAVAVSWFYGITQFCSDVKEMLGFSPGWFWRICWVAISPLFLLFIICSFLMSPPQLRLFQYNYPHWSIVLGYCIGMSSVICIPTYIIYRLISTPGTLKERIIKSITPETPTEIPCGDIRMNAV

As for `N#Cc1ccc2[nH]cc(CCCN3CCN(c4ccc(-n5cc(F)cc(F)c5=O)cc4)CC3)c2c1` [Example 26, 3-(3-(4-(4-(3,5-difluoro-2-oxopyridin-1(2H)-yl)phenyl)piperazin-1-yl)propyl)-1H-indole-5-carbonitrile], affinity in experiment [1] was put at a Ki of 0.31 nM. For the same compound, the midpoint of inhibition in experiment [2], the IC50, lay at 1.3 nM.
In experiment [1], `N#Cc1ccc2[nH]cc(CCN3CCN(c4ccc(-n5cc(F)cc(F)c5=O)cc4)CC3)c2c1` [Example 27, 3-(2-(4-(4-(3,5-difluoro-2-oxopyridin-1(2H)-yl)phenyl)piperazin-1-yl)ethyl)-1H-indole-5-carbonitrile] showed a Ki of 68 nM. The compound further displayed an IC50 in experiment [2] of 5.5 nM.
In turn, `N#Cc1ccc2[nH]cc(CCCCCN3CCN(c4ccc(-n5cc(F)cc(F)c5=O)cc4)CC3)c2c1` [Example 28, 3-(5-(4-(4-(3,5-difluoro-2-oxopyridin-1(2H)-yl)phenyl)piperazin-1-yl)pentyl)-1H-indole-5-carbonitrile] showed a Ki in experiment [1] of 1.5 nM. The compound also showed an IC50 in experiment [2] of 2.2 nM.
The corresponding values for `N#Cc1ccc2[nH]cc(CCCN3CCN(c4ccc(-n5ccc6ccccc6c5=O)cc4)CC3)c2c1` [Example 30, 3-(3-(4-(4-(1-oxoisoquinolin-2(1H)-yl)phenyl)piperazin-1-yl)propyl)-1H-indole-5-carbonitrile] are 3.6 nM and 4.3 nM.
In the same order, the values of `N#Cc1ccc2[nH]cc(CCCCN3CCN(c4ccc(-n5ccc6ncccc6c5=O)cc4)CC3)c2c1` [Example 31, 3-(4-(4-(4-(5-oxo-1,6-naphthyridin-6(5H)-yl)phenyl)piperazin-1-yl)butyl)-1H-indole-5-carbonitrile] are 0.5 nM and 0.23 nM.
The corresponding values for `N#Cc1ccc2[nH]cc(CCCN3CCN(c4ccc(-n5ccc6ncccc6c5=O)cc4)CC3)c2c1` [Example 32, 3-(3-(4-(4-(5-oxo-1,6-naphthyridin-6(5H)-yl)phenyl)piperazin-1-yl)propyl)-1H-indole-5-carbonitrile] are 1.7 nM and 0.93 nM.
Regarding `N#Cc1ccc2[nH]cc(CCCCN3CCN(c4ccc(-n5ccc6occc6c5=O)cc4)CC3)c2c1` [Example 33, 3-(4-(4-(4-(4-oxofuro[3,2-c]pyridin-5 (4H)-yl)phenyl)piperazin-1-yl)butyl)-1H-indole-5-carbonitrile], affinity in experiment [1] was put at a Ki of 0.14 nM. In addition, in experiment [2], the IC50 is 0.53 nM.
In the same order, the values of `N#Cc1ccc2[nH]cc(CCCN3CCN(c4ccc(-n5ccc6occc6c5=O)cc4)CC3)c2c1` [Example 34, 3-(3-(4-(4-(4-oxofuro[3,2-c]pyridin-5 (4H)-yl)phenyl)piperazin-1-yl)propyl)-1H-indole-5-carbonitrile] are 0.1 nM and 4.2 nM.
In the same order, the values of `N#Cc1ccc2[nH]cc(CCCCN3CCN(c4ccc(-n5ccncc5=O)cc4)CC3)c2c1` [Example 35, 3-(4-(4-(4-(2-oxopyrazin-1(2H)-yl)phenyl)piperazin-1-yl)butyl)-1H-indole-5-carbonitrile] are 0.8 nM and 0.8 nM.
In the same order, the values of `N#Cc1ccc2[nH]cc(CCCN3CCN(c4ccc(-n5ccncc5=O)cc4)CC3)c2c1` [Example 36, 3-(3-(4-(4-(2-oxopyrazin-1(2H)-yl)phenyl)piperazin-1-yl)propyl)-1H-indole-5-carbonitrile] are 3 nM and 1.8 nM.
Compound `N#Cc1ccc2[nH]cc(CCCCN3CCN(c4ccc(N5CCCNC5=O)cc4)CC3)c2c1` [Example 37, 3-(4-(4-(4-(2-oxotetrahydropyrimidin-1(2H)-yl)phenyl)piperazin-1-yl)butyl)-1H-indole-5-carbonitrile] displayed a Ki in experiment [1] of 1.3 nM. The compound further yielded an IC50 in experiment [2] of 1.3 nM.
The compound `N#Cc1ccc2[nH]cc(CCCN3CCN(c4ccc(N5CCCNC5=O)cc4)CC3)c2c1` [Example 38, 3-(3-(4-(4-(2-oxotetrahydropyrimidin-1(2H)-yl)phenyl)piperazin-1-yl)propyl)-1H-indole-5-carbonitrile] yielded a Ki in experiment [1] of 1.9 nM. Besides, in experiment [2], half-maximal inhibition (IC50) required 1.4 nM.

A word on the Ki: it is the equilibrium dissociation constant of an inhibitor or competing ligand from its target. A lower Ki goes with a stronger hold on the target. The IC50 is the point on the concentration scale where inhibition reaches its midpoint. Lower therefore signals greater potency in that assay.
